Laboratory results as given in ChEMBL document CHEMBL1201862, “PubChem BioAssay data set” (2004).
The source made the active and inactive calls. No stated cut-off is given here; in the data, actives have a measured IC50 and inactives only a lower limit.

Target: Envelope glycoprotein gp160 (Human immunodeficiency virus 1, UniProt Q6QLK5)
Test: cell-free HIV fusion peptide-binding blockers – biochemical, uHTS, fluorescence dequenching, […] (AID 1986)

Chain of Envelope glycoprotein gp160 (Q6QLK5 whole entry, the tested form may be a part): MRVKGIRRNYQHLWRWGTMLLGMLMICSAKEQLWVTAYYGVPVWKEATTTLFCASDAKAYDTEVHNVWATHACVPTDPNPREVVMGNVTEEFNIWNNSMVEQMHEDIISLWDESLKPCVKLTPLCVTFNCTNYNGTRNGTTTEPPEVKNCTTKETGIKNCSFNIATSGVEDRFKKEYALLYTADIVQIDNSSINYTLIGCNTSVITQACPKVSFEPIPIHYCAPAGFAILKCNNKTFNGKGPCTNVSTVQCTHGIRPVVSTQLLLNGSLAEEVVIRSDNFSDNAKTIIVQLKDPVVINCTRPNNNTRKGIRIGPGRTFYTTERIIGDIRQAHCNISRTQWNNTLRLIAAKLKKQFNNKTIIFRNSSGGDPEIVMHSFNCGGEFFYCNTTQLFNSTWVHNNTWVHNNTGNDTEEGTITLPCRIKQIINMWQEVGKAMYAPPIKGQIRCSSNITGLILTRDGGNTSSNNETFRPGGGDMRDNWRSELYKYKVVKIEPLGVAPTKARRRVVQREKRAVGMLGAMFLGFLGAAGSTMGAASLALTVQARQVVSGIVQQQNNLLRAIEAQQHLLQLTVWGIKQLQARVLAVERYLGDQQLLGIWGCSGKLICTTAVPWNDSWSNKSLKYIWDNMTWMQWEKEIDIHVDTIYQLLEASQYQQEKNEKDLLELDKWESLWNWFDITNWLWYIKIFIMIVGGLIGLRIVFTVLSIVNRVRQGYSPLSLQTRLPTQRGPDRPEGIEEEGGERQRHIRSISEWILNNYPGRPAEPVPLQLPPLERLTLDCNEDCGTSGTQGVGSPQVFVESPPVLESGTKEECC

| Structure (SMILES) | IC50 |
| --- | --- |
| COc1ccc(/C=C2/SC(=S)N(CC(=O)O)C2=O)cc1OCc1ccc(Cl)cc1 | 16.5 µM (active) |
| COC(=O)c1sc(-c2ccc(C(C)(C)C)cc2)cc1NC(=O)c1ccccc1C(=O)O | 18.5 µM (active) |
